Results reported in patent US9359451B2, “Methods and compositions for treating trauma-hemorrhage using estrogen and derivatives thereof” (THE UAB RESEARCH FOUNDATION, priority 2012, dated 2016).

Tests used:
isolated vascular rings = assay: Vascular reactivity of isolated vascular rings in a physiological bath; set-up: species or system rat or pig; settings: antagonist added to EE-3-SO4
Description: Data to delineate the mechanism of action for EE-3-SO4 vis-à-vis effects on the cardiovascular system was acquired. While it is well known that estrogens act on the vascular system by a variety of mechanisms including vasorelaxation per se, specific confirmation of this fact for EE-3-SO4 was needed. […] Vessels are contracted by a variety of agents (i.e., endothelin-1, phenylephrine). The action(s) are measured with a force transducer and recorded digitally. […] (see FIG. 42).

[1] = test system: ovariectomized female CBA/J mice; assay: Trauma-hemorrhage in ovariectomized female mice: plasma E2 and uterine wet weight; type: in vivo, mouse; settings: 24 h after E2 sc; sham operated or hemorrhaged, vs vehicle
Description: To test this, ovariectomized female CBA/J mice were subjected to laparotomy (i.e., soft tissue trauma) and hemorrhagic shock (35±5 mmHg for 90 min, then resuscitated) or sham operation. […] Immune cells were isolated 24 h thereafter.
Experimental groups. Ovariectomy was performed in female CBA/J mice 2 wk before trauma-hemorrhage using two dorsolateral incisions. […] Two weeks after ovariectomy, the animals were divided into four groups. Groups 1 and 2 consisted of sham-operated ovariectomized females, which were neither hemorrhaged nor resuscitated. Animals in groups 3 and 4 consisted of ovariectomized females, which were subjected to the trauma-hemorrhage procedure. […] Each group consisted of 7-8 animals.
Trauma-hemorrhage procedure. […] Blood pressure was constantly monitored by attaching one of the catheters to a blood pressure analyzer (Micro-Med, Louisville, Ky.). […]
Determination of plasma E2 concentration. E2 concentration was determined using a commercially available radio-immunoassay (ICN Biomedicals, Costa Mesa, Calif.) as described by the manufacturer.

[2] = test system: splenic macrophages (sMΦ) and peritoneal macrophages (pMΦ); assay: Splenic and peritoneal macrophage cytokine release after trauma-hemorrhage (ex vivo, LPS); type: in vivo, mouse; settings: 24 h after trauma-hemorrhage, LPS 48 h
Description: Experimental groups. Ovariectomy was performed in female CBA/J mice 2 wk before trauma-hemorrhage using two dorsolateral incisions. […] Two weeks after ovariectomy, the animals were divided into four groups. Groups 1 and 2 consisted of sham-operated ovariectomized females, which were neither hemorrhaged nor resuscitated. Animals in groups 3 and 4 consisted of ovariectomized females, which were subjected to the trauma-hemorrhage procedure. Immediately before initiation of fluid resuscitation, animals in groups 1 and 3 received a subcutaneous injection of vehicle ([…] corn oil), and animals in groups 2 and 4 were treated with E2 ([…]/25 g body wt dissolved in […] corn oil). Each group consisted of 7-8 animals.
Trauma-hemorrhage procedure. Mice in the trauma-hemorrhage groups were lightly anesthetized with methoxyflurane (Metofane; Pitman Moore, Mundelein, Ill.) and restrained in a supine position, and a 2.5-cm midline laparotomy (i.e., soft tissue trauma induced) was performed, which was then closed aseptically in two layers using 6-0 Ethilon sutures (Ethicon, Somerville, N.J.). Both femoral arteries were then aseptically cannulated with polyethylene-10 tubing (Clay-Adams, Parsippany, N.J.) using a minimal dissection technique, and the animals were allowed to awaken. Blood pressure was constantly monitored by attaching one of the catheters to a blood pressure analyzer (Micro-Med, Louisville, Ky.). Lidocaine was applied to the incision sites to provide analgesia during the study period. Upon awakening, the animals were bled through the other catheter to a mean arterial blood pressure of 35±5 mmHg (mean arterial blood pressure prehemorrhage was 95±5 mmHg), which was maintained for 90 min. At the end of that procedure, the animals were resuscitated with four times the shed blood volume in the form of lactated Ringer solution. The catheters were then removed, the vessels were ligated, and the groin incisions were closed. Sham-operated animals underwent the same surgical procedure, which included ligation of both femoral arteries, but neither hemorrhage nor fluid resuscitation was carried out. There was no mortality observed in this model of trauma-hemorrhage.
Preparation of sMΦ and pMΦ culture. Spleens were harvested aseptically, and sMΦ cultures were established as previously described in detail (Zellweger 1996). Resident pMΦ were harvested by peritoneal lavage at 24 h after sham operation or trauma-hemorrhage and resuscitation, and monolayers were established as previously described (Ayala 1990). The monolayers of sMΦ and pMΦ (1×10^6 cells/ml) were stimulated with […] of lipopolysaccharide W/ml Click's medium containing 10% heat-inactivated FBS for 48 h at 37° C., 5% CO2, and 90% humidity to assess the cells' ability to release cytokines (Lipopolysaccharide W was from Escherichia coli 055:B5, Difco Laboratories, Detroit, Mich.) At the end of the incubation period, the culture supernatants were removed, centrifuged at 300 g for 15 min, divided into aliquots, and stored.
IL-10 concentrations in macrophage and splenocyte supernatants and IFN-γ levels in the splenocyte supernatants were determined using sandwich-enzyme-linked immunosorbent assay technique (ELISA) according to the manufacturer's recommendations (BD OptEIA ELISA set; BD Pharmingen, San Diego, Calif.).
IL-6 activity was determined by assessing the 72-h proliferation of the IL-6-dependent murine B cell hybridoma 7TD1 stimulated by serial dilutions of sMΦ and pMΦ supernatants (Ayala 1992). For the last 3 h of incubation, […] of a 3-(4,5-dimethylthiazol-2-yl)-2,5-diphenyltetrazolium bromide solution (5 mg/ml in RPMI 1640; Sigma Chemical, St. Louis, Mo.) was added to each well. The amount of dark blue formazan crystal formation was then measured spectrophotometrically. […]

[3] = test system: Sprague-Dawley adult male rats; assay: Traumatic brain injury (lateral fluid percussion): ICP, CPP and pbtO2 monitoring; type: in vivo, rat
Description: Sprague-Dawley adult male rats were divided into 4 groups: vehicle, E2-SO4 (1 mg/kg), sham+vehicle and sham+E2-SO4; n=5/group. The TBI model was lateral fluid percussion injury (LFP), induced via a hydraulic pressure pulse to the anesthetized rat's exposed brain. This was introduced through a burr hole in the lateral skull prepared one day prior to LFP. A single iv dose of E2-SO4 or saline vehicle was administered 1 hr after LFP. Physiological parameters were measured 24 hr post-injury.
(§1) In a second experiment, the efficacy of E2-SO4 treatment for TBI in a lateral fluid percussion (LFP) model was examined. This involved 6 groups of rats (n=5/group). All rats received a craniectomy. Groups 1, 2, 4 and 5 received LFP injury. Groups 1 and 4 were treated with E2 (1 mg/kg) 1 hr post-injury, groups 2 and 5 were vehicle (Veh)-treated and groups 3 and 6 were sham. Groups 1-3 underwent intracranial pressure (ICP), cerebral perfusion pressure (CPP) and partial oxygen pressure (pbtO2) monitoring. Groups 4-6 underwent fludoexoyglucose (FDG)-PET/CT and diffusion tensor imaging (DTI) analysis on days 1 and 7 post-induction. Relative standard uptake values (SUV) of upper half of brain to central value, fractional anisotropy (FA) and apparent diffusion coefficient (ADC) maps were calculated.
FIG. 48B is a plot of cerebral perfusion pressure, which is a derivative of mean arterial pressure less ICP. […] The X axis is shown for an extended 2 hours to confirm stability for the various probes used.
The clinical manifestation of edema after TBI can be seen as increased intracranial pressure, with lower brain perfusion pressure and reduced oxygen tension. […] FIG. 44 compares treatments for TBI with hormones, measured over a 120 min period to control the effects of the invasive probe on pressures. The treatments are progesterone (T+progesterone: magenta), progesterone plus E2-SO4 (T+E+P: brown), E2-SO4 (T+E2SO4: red) and EE-3-SO4 (T+EE-3SO4: yellow).

injured brain = assay: Traumatic brain injury: FDG-PET/CT, diffusion tensor imaging and MRI edema; type: in vivo, rat
Description: as §1
Rats were either treated with E2 or a saline vehicle control, where treatment is administered 1 hour after injury. […] The former is the area of deranged nerves, while the latter constitutes intact nerves.

[4] = rat, in vivo, iv

Row | Compound | antagonism of EE-3-SO4's vessel relaxation (isolated vascular rings) | uterine wet weight [1] | pMΦ IL-1β release [2] | pMΦ IL-6 production [2] | pMΦ IL-10 production [2] | sMΦ IL-6 release [2] | sMΦ IL-10 release [2] | sMΦ IL-12 production [2] | oxygen delivery to the injured brain ([3]; FIG. 48, E2 treatment administered 24 hours after TBI) | CPP (cerebral perfusion pressure) ([3]; TBI (LFP), 1 mg/kg 1 hr post-injury, Veh 65.2±1.4, sham 82.1±1.3) [mmHg] | pbtO2 (brain tissue oxygen partial pressure) ([3]; TBI (LFP), 1 mg/kg iv 1 hr after injury, 24 hr post-injury, vehicle 15.8±1.3, sham 39.6) [mmHg] | reduction in FA, sum of volumes from DTI slices, compared to vehicle controls (injured brain; FIG. 49, treatment 1 hour after injury, images 24 hr after treatment) | FA (fractional anisotropy) change (injured brain; between Veh and treated groups) | Edema size (injured brain; day 1, treated group) [mm^3] | Edema size (injured brain; day 7, treated group) [mm^3] | blood levels after injection [4]
1 | C[C@]12CC[C@@H]3c4ccc(O)cc4C[C@@H](CCCCCCCCC[S+]([O-])CCCC(F)(F)C(F)(F)F)[C@H]3[C@@H]1CC[C@@H]2O (stereo partly shown) [ICI 182,780] | completely blocked | – | – | – | – | – | – | – | – | – | – | – | – | – | – | –
2 | C[C@]12CC[C@@H]3c4ccc(O)cc4CC[C@H]3[C@@H]1CC[C@@H]2O [17β-estradiol] | – | significantly increased | partial restoration of pMΦ IL-1β release | maintained at sham levels | not affected by either trauma-hemorrhage or E2 treatment | did not influence IL-6 release | significantly reduced IL-10 release | prevented the depression in sMΦ IL-12 production | enhances oxygen delivery to the injured brain | 75.7±1.4 | 34.1±1.6 | approximately 50% | No significant FA change | 10.4±2.6 | 1.2±0.7 | attains high blood levels rapidly
